Data taken from ChEMBL document CHEMBL1201862, “PubChem BioAssay data set” (2004).
Active and inactive are the calls of the source.

Experiments:
[1] = biological target: T1, Serine/threonine-protein phosphatase (Candida dubliniensis (strain CD36 / CBS 7987 / NCPF 3949 / NRRLY-17841) (Yeast), UniProt B9W6M3); assay: blockers of CaCl2-induced CDRE-lacZ signaling – S. cerevisiae, luminescence, secondary, dose response (AID 2388); type: functional, cell-based;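 also: yeast reporter cells carrying a calcineurin-responsive lacZ construct stimulated with calcium chloride; luminescent beta-galactosidase reporter signal in whole cells rather than isolated phosphatase activity; potency for inhibition where a drop in reporter signal means calcineurin blockade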
T1 sequence (B9W6M3 whole entry): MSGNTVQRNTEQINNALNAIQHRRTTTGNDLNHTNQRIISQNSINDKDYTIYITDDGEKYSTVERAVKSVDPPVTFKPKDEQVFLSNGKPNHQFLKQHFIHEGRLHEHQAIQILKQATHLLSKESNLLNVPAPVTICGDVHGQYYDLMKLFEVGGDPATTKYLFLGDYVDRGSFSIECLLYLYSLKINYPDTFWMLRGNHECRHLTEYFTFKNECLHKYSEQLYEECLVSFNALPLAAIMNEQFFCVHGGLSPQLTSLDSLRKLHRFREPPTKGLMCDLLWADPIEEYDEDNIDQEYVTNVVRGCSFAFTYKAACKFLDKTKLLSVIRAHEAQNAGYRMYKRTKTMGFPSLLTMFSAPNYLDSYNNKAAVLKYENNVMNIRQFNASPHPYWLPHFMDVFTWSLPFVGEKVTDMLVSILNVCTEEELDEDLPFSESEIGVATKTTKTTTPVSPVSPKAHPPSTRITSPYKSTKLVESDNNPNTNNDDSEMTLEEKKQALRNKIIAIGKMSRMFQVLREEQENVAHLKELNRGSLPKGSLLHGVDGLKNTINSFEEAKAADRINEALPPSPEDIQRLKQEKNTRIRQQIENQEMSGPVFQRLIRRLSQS

[2] = IC50 of Artemis nuclease activity blockers – biochemical, fluorescence intensity, dose response (AID 720701); type: functional;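 also: Artemis endonuclease enzyme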
Bcl-2-like protein 10 = biological target: T2, Bcl-2-like protein 10 (Homo sapiens, UniProt Q9HD36); assay: Bcl-B/TR3 peptide binding disruption – biochemical, fluorescence polarization, FITC-TR3 peptide, selectivity assay for Bfl-1 inhibitor project, primary screen (AID 748);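 also: fluorescence polarization from a fluorescein-labelled TR3 peptide binding purified Bcl-B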
T2 sequence (Q9HD36 whole entry): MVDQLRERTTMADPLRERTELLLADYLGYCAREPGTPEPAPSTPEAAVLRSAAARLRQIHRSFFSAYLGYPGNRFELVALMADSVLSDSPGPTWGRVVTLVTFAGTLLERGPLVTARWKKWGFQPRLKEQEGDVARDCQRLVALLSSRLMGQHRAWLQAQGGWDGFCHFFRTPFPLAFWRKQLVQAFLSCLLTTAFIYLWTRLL

[3] = general mammalian cell viability loss – activator set, cherry-pick, cytotoxicity control for miR-122 modulator project, dose response (AID 720690); type: functional, cell-based;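 also: HEK293T human cells scored for general mammalian cytotoxicity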
[4] = reduction of Shn3 3'UTR-driven luciferase in osteoblasts – cell-based, Clone20 osteoblasts, firefly luciferase, cherry-picked, dose response (AID 624132); type: functional;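 also: firefly luciferase luminescence from reporter carrying the Shn3 3'UTR in osteoblasts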
Insulin-degrading enzyme = biological target: T3, Insulin-degrading enzyme (Homo sapiens, UniProt P14735); assay: cellular IDE activation of Abeta substrate cleavage – fluorescence polarization, HEK cells, dose response (AID 588439); type: functional, cell-based
T3 sequence (P14735 whole entry): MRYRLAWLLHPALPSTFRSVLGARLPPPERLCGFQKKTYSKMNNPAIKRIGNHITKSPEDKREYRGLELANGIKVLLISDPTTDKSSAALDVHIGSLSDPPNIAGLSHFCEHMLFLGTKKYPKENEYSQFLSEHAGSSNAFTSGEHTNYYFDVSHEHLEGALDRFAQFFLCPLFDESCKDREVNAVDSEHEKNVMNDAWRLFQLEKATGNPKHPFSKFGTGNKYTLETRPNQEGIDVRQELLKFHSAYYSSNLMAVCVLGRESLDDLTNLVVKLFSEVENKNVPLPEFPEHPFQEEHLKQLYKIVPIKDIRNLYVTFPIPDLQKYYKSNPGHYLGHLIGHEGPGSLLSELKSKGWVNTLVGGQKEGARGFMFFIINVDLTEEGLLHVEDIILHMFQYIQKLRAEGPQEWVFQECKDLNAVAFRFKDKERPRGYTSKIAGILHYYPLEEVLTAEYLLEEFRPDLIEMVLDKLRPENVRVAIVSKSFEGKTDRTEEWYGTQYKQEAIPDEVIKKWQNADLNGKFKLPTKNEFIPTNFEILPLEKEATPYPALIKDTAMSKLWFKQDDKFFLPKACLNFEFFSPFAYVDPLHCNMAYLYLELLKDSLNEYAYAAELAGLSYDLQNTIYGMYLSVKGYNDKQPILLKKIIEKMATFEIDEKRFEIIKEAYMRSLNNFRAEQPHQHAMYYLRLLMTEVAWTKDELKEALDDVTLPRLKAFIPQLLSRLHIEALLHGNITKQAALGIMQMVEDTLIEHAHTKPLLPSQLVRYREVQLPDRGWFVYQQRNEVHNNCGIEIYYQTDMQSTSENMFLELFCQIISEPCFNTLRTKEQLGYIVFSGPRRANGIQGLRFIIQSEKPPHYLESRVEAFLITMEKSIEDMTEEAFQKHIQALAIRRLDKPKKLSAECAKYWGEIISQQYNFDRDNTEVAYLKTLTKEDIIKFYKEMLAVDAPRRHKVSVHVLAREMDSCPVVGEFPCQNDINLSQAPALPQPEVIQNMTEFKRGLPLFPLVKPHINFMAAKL

[5] = loss of viability in HepG2 cells – cell-based, CellTiter-Glo, cherry-picked, cytotoxicity control for Shn3 inhibitor project, dose response (AID 624134); type: functional
[6] = biological target: Mast/stem cell growth factor receptor Kit (Homo sapiens, UniProt P10721); type: functional;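 also: KIT entry within a kinase panel assay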
[7] = biological target: cAMP-dependent protein kinase catalytic subunit alpha (Homo sapiens, UniProt P17612); type: functional
Misshapen-like kinase 1 = Misshapen-like kinase 1 (Homo sapiens, UniProt Q8N4C8); type: functional;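 also: kinome panel screen with MINK as the panel member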
[8] = biological target: Cyclin-dependent kinase 9 (Homo sapiens, UniProt P50750); type: functional;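 also: value from the CDK9 entry of a kinome-spanning kinase panel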
[9] = Vero E6 cell cytotoxicity, dose response, cytotoxicity control for non-replicating M. tuberculosis project, secondary assay (AID 492998); type: functional, VeroE6; settings: Vero C1008

Sequence of Misshapen-like kinase 1 (Q8N4C8 whole entry): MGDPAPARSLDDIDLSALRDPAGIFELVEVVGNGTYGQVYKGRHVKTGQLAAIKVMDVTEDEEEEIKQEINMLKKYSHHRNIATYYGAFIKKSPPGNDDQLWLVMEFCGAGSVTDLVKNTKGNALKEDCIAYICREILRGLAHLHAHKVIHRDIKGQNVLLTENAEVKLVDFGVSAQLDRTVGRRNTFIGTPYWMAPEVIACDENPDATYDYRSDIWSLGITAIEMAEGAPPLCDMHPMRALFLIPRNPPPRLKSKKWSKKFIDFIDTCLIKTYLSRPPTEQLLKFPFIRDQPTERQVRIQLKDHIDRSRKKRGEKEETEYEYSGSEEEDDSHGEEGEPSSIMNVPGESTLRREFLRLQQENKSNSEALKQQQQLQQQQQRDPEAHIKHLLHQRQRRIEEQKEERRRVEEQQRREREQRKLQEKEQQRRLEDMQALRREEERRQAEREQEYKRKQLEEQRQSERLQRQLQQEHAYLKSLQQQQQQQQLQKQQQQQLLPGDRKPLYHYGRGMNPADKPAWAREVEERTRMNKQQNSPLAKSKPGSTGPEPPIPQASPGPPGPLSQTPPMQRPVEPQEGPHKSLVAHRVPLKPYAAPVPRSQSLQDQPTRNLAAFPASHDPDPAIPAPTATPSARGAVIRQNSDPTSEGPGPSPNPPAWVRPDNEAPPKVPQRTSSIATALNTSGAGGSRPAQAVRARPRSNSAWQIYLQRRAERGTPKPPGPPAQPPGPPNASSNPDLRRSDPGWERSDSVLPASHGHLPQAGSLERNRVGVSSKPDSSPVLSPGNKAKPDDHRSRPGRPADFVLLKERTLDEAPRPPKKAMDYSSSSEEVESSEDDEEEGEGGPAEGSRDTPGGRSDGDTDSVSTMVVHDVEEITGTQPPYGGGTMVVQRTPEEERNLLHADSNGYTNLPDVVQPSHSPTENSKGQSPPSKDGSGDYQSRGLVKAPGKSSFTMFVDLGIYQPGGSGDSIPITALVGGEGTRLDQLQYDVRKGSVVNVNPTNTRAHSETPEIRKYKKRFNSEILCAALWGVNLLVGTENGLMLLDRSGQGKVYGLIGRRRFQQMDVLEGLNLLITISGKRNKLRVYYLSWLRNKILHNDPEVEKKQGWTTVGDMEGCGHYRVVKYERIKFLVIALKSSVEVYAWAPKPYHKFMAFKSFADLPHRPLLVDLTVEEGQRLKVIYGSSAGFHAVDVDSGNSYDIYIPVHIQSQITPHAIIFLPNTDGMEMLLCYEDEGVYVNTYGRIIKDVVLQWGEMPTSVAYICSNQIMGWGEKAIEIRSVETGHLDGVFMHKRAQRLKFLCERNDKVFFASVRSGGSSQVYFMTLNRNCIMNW
Sequence of Cyclin-dependent kinase 9 (P50750 whole entry): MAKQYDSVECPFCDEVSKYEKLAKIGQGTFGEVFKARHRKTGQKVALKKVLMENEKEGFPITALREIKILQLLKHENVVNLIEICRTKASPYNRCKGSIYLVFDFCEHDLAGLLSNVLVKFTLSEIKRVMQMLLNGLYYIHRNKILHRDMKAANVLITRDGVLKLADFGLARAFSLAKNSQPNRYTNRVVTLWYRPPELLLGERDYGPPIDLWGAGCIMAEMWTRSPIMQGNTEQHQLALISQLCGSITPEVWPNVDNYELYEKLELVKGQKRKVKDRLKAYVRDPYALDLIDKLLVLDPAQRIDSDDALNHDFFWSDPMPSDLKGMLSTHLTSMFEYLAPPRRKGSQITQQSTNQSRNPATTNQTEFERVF
Sequence of Mast/stem cell growth factor receptor Kit (P10721 whole entry): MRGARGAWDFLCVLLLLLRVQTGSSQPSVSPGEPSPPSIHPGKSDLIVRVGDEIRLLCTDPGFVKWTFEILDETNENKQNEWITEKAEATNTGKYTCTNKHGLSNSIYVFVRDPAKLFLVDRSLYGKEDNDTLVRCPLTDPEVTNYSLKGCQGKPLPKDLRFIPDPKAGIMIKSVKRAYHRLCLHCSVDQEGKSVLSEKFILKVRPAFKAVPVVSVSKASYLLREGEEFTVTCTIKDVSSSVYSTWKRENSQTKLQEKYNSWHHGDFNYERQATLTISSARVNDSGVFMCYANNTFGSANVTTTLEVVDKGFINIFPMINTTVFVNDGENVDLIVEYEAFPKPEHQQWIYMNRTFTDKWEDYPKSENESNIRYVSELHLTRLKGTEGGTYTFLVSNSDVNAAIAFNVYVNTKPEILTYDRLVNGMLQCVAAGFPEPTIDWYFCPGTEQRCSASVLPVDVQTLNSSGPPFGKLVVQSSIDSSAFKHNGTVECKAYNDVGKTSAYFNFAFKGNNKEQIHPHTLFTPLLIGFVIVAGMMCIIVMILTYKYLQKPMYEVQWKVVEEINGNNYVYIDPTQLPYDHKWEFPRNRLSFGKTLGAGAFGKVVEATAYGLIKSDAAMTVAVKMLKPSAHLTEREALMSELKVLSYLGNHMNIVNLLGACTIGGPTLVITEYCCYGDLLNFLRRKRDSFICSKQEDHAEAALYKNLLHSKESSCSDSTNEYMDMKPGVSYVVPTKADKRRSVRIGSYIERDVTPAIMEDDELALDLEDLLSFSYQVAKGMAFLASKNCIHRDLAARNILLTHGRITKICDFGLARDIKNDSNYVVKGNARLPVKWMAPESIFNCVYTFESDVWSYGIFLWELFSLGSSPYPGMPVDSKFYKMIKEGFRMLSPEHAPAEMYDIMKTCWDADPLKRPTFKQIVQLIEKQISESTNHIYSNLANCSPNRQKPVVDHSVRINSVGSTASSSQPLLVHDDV

## CC(C)CC(=O)NC(c1cccs1)c1ccc2cccnc2c1O (centres undefined)
[1]
  EC50: > 180 µM (inactive)

## CCOC(=O)c1ccc(NC2=CC(=O)C(=O)c3ccccc32)cc1
[2]
  IC50: 2.6 µM (active)
Bcl-2-like protein 10
  IC50: 60.7 µM (inactive)

## OC(CNCCC1C=Nc2ccccc21)Cn1c2ccc(Cl)cc2c2cc(Cl)ccc21 (centres undefined)
[3]
  AC50: 6.52 µM (active)
[4]
  AC50: 5.11 µM (active)
Insulin-degrading enzyme
  EC50: > 54.7 µM (inactive)
[5]
  AC50: 9.39 µM (active)

## NC1CCC(Nc2nc(Cl)cc(-c3c[nH]c4ncccc34)n2)CC1 (centres undefined)
[6]
  Ki: > 3.98 µM (inactive)
[7]
  Ki: 0.00794 µM (active)
  pKi: 8.1
Misshapen-like kinase 1
  Ki: 0.02 µM (active)
  pKi: 7.7

## O=C(O)C1CN(Cc2ccc(OCc3ccccc3)cc2Cl)C1
[8]
  Ki: > 1.58 µM (inactive)

## Cc1ccccc1-c1cc2c(nn1)-c1ccccc1C2=O
[9]
  CC50: 9.21 µM (active)
